# In PubChem BioAssay (NCI):
#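 All cell lines were grown in 96-well plates and treated with compound for 48 hours. At the GI50, growth is halved. The concentration for full growth arrest is given as TGI.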
# Experiments:
# Assay in all cases: growth of human tumour cells (NCI), 48 h
# 786-0 renal = system: 786-0 renal
# A498 renal = system: A498 renal
# A549 NSCLC = system: A549 NSCLC
# ACHN renal = system: ACHN renal
# CAKI-1 renal = system: CAKI-1 renal
# CCRF-CEM leukemia = system: CCRF-CEM leukemia
# COLO 205 colon = system: COLO 205 colon
# DU-145 prostate = system: DU-145 prostate
# EKVX NSCLC = system: EKVX NSCLC
# HCC-2998 colon = system: HCC-2998 colon
# HCT-116 colon = system: HCT-116 colon
# HCT-15 colon = system: HCT-15 colon
# HL-60(TB) leukemia = system: HL-60(TB) leukemia
# HOP-62 NSCLC = system: HOP-62 NSCLC
# HOP-92 NSCLC = system: HOP-92 NSCLC
# HS 578T breast = system: HS 578T breast
# HT29 colon = system: HT29 colon
# IGROV1 ovarian = system: IGROV1 ovarian
# K-562 leukemia = system: K-562 leukemia
# KM12 colon = system: KM12 colon
# LOX IMVI melanoma = system: LOX IMVI melanoma
# M14 melanoma = system: M14 melanoma
# MALME-3M melanoma = system: MALME-3M melanoma
# MCF7 breast = system: MCF7 breast
# MDA-MB-231 breast = system: MDA-MB-231 breast
# MDA-MB-435 = system: MDA-MB-435
# MOLT-4 leukemia = system: MOLT-4 leukemia
# NCI-H226 lung = system: NCI-H226 lung
# NCI-H23 lung = system: NCI-H23 lung
# NCI-H460 lung = system: NCI-H460 lung
# NCI-H522 lung = system: NCI-H522 lung
# NCI/ADR-RES ovarian = system: NCI/ADR-RES ovarian
# OVCAR-3 ovarian = system: OVCAR-3 ovarian
# OVCAR-4 ovarian = system: OVCAR-4 ovarian
# OVCAR-5 ovarian = system: OVCAR-5 ovarian
# PC-3 prostate = system: PC-3 prostate
# RPMI-8226 leukemia = system: RPMI-8226 leukemia
# SF-268 CNS = system: SF-268 CNS
# SF-295 CNS = system: SF-295 CNS
# SF-539 CNS = system: SF-539 CNS
# SK-MEL-2 melanoma = system: SK-MEL-2 melanoma
# SK-MEL-28 melanoma = system: SK-MEL-28 melanoma
# SK-MEL-5 melanoma = system: SK-MEL-5 melanoma
# SK-OV-3 ovarian = system: SK-OV-3 ovarian
# SN12C renal = system: SN12C renal
# SNB-19 CNS = system: SNB-19 CNS
# SNB-75 CNS = system: SNB-75 CNS
# SR leukemia = system: SR leukemia
# SW-620 colon = system: SW-620 colon
# T-47D breast = system: T-47D breast
# TK-10 renal = system: TK-10 renal
# U251 CNS = system: U251 CNS
# UACC-62 melanoma = system: UACC-62 melanoma
# UO-31 renal = system: UO-31 renal
compound,measurement,setting,value
COC(=O)c1cc2c(cc1Cl)SC(N(N(C)C)S(=O)(=O)c1ccc(Cl)cc1)=NS2(=O)=O,GI50,786-0 renal,31.3 µM
same,TGI,786-0 renal,> 100 µM
same,GI50,A498 renal,15.1 µM
same,TGI,A498 renal,30.1 µM
same,GI50,A549 NSCLC,17.2 µM
same,TGI,A549 NSCLC,> 100 µM
same,GI50,ACHN renal,17.8 µM
same,TGI,ACHN renal,38.5 µM
same,GI50,CAKI-1 renal,21.3 µM
same,TGI,CAKI-1 renal,46.1 µM
same,GI50,CCRF-CEM leukemia,14.1 µM
same,TGI,CCRF-CEM leukemia,37.1 µM
same,GI50,COLO 205 colon,13.4 µM
same,TGI,COLO 205 colon,29.8 µM
same,GI50,DU-145 prostate,13.7 µM
same,TGI,DU-145 prostate,26.6 µM
same,GI50,EKVX NSCLC,17 µM
same,TGI,EKVX NSCLC,33 µM
same,GI50,HCC-2998 colon,16.1 µM
same,TGI,HCC-2998 colon,32.7 µM
same,GI50,HCT-116 colon,15.6 µM
same,TGI,HCT-116 colon,29 µM
same,GI50,HCT-15 colon,14.1 µM
same,TGI,HCT-15 colon,27.1 µM
same,GI50,HL-60(TB) leukemia,16.4 µM
same,TGI,HL-60(TB) leukemia,42.6 µM
same,GI50,HOP-62 NSCLC,19.6 µM
same,TGI,HOP-62 NSCLC,48.7 µM
same,GI50,HOP-92 NSCLC,14.5 µM
same,TGI,HOP-92 NSCLC,30.9 µM
same,GI50,HS 578T breast,18.8 µM
same,TGI,HS 578T breast,48.6 µM
same,GI50,HT29 colon,16.1 µM
same,TGI,HT29 colon,31.9 µM
same,GI50,IGROV1 ovarian,22.5 µM
same,TGI,IGROV1 ovarian,73.6 µM
same,GI50,K-562 leukemia,11.3 µM
same,TGI,K-562 leukemia,23.8 µM
same,GI50,KM12 colon,13.8 µM
same,TGI,KM12 colon,27 µM
same,GI50,LOX IMVI melanoma,15 µM
same,TGI,LOX IMVI melanoma,28.3 µM
same,GI50,M14 melanoma,15.8 µM
same,TGI,M14 melanoma,32 µM
same,GI50,MALME-3M melanoma,13.8 µM
same,TGI,MALME-3M melanoma,40 µM
same,GI50,MCF7 breast,17 µM
same,TGI,MCF7 breast,34.8 µM
same,GI50,MDA-MB-231 breast,17.1 µM
same,TGI,MDA-MB-231 breast,44 µM
same,GI50,MDA-MB-435,16.3 µM
same,TGI,MDA-MB-435,33.3 µM
same,GI50,MOLT-4 leukemia,11.8 µM
same,TGI,MOLT-4 leukemia,27.5 µM
same,GI50,NCI-H226 lung,19.8 µM
same,TGI,NCI-H226 lung,62 µM
same,GI50,NCI-H23 lung,19.7 µM
same,TGI,NCI-H23 lung,43.5 µM
same,GI50,NCI-H460 lung,18.7 µM
same,TGI,NCI-H460 lung,37.4 µM
same,GI50,NCI-H522 lung,12.4 µM
same,TGI,NCI-H522 lung,30.2 µM
same,GI50,NCI/ADR-RES ovarian,15.2 µM
same,TGI,NCI/ADR-RES ovarian,39.9 µM
same,GI50,OVCAR-3 ovarian,13 µM
same,TGI,OVCAR-3 ovarian,37.8 µM
same,GI50,OVCAR-4 ovarian,18.1 µM
same,TGI,OVCAR-4 ovarian,54.8 µM
same,GI50,OVCAR-5 ovarian,20.1 µM
same,TGI,OVCAR-5 ovarian,46.7 µM
same,GI50,PC-3 prostate,7.63 µM
same,TGI,PC-3 prostate,20.5 µM
same,GI50,RPMI-8226 leukemia,17.1 µM
same,TGI,RPMI-8226 leukemia,53.4 µM
same,GI50,SF-268 CNS,20.1 µM
same,TGI,SF-268 CNS,45.5 µM
same,GI50,SF-295 CNS,18 µM
same,TGI,SF-295 CNS,51.2 µM
same,GI50,SF-539 CNS,15.8 µM
same,TGI,SF-539 CNS,31.5 µM
same,GI50,SK-MEL-2 melanoma,20.5 µM
same,TGI,SK-MEL-2 melanoma,59 µM
same,GI50,SK-MEL-28 melanoma,15.9 µM
same,TGI,SK-MEL-28 melanoma,29.3 µM
same,GI50,SK-MEL-5 melanoma,14.6 µM
same,TGI,SK-MEL-5 melanoma,27.7 µM
same,GI50,SK-OV-3 ovarian,17.9 µM
same,TGI,SK-OV-3 ovarian,49.2 µM
same,GI50,SN12C renal,19.2 µM
same,TGI,SN12C renal,47.7 µM
same,GI50,SNB-19 CNS,17.3 µM
same,TGI,SNB-19 CNS,50.2 µM
same,GI50,SNB-75 CNS,23.7 µM
same,TGI,SNB-75 CNS,69.9 µM
same,GI50,SR leukemia,19.8 µM
same,TGI,SR leukemia,40.9 µM
same,GI50,SW-620 colon,14.3 µM
same,TGI,SW-620 colon,27.4 µM
same,GI50,T-47D breast,8.42 µM
same,TGI,T-47D breast,26.7 µM
same,GI50,TK-10 renal,19.2 µM
same,TGI,TK-10 renal,53.3 µM
same,GI50,U251 CNS,17 µM
same,TGI,U251 CNS,44.8 µM
same,GI50,UACC-62 melanoma,17 µM
same,TGI,UACC-62 melanoma,35.6 µM
same,GI50,UO-31 renal,25.3 µM
same,TGI,UO-31 renal,> 100 µM
